“And” between values parts separate entries of the source, which are not always exact repeats. Identical values can stand only once.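 1) Cells in 96-well plates. 2) Compound, 48 h, 5 concentrations. 3) Linear interpolation between surrounding doses. 4) Unreached endpoint = highest concentration. GI50 = concentration required for 50% inhibition of growth.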 The source made the active and inactive calls. Cut-off read from the data, not from the text of the source: active = GI50 up to about 1.1 µM and inactive = higher.
Tests used:
Assay in all cases: growth of human tumour cells (NCI), 48 h
SF-539 = test system: SF-539
Malme-3M = test system: Malme-3M
M14 = test system: M14
UACC-257 = test system: UACC-257
LOX IMVI = test system: LOX IMVI
SNB-19 = test system: SNB-19
MDA-MB-231 = test system: MDA-MB-231
KM12 = test system: KM12
HCT-15 = test system: HCT-15
MCF7 = test system: MCF7
UO-31 = test system: UO-31
MDA-N = test system: MDA-N
U-251 = test system: U-251
SW-620 = test system: SW-620
EKVX = test system: EKVX
BT-549 = test system: BT-549
OVCAR-3 = test system: OVCAR-3
HCT-116 = test system: HCT-116
NCI-H226 = test system: NCI-H226
OVCAR-8 = test system: OVCAR-8
K562 = test system: K562
SR = test system: SR
UACC-62 = test system: UACC-62
SF-295 = test system: SF-295
SK-MEL-5 = test system: SK-MEL-5
NCI-H23 = test system: NCI-H23
MDA-MB-435 = test system: MDA-MB-435
MOLT-4 = test system: MOLT-4
A549 = test system: A549
RPMI-8226 = test system: RPMI-8226
NCI-H522 = test system: NCI-H522
SK-MEL-2 = test system: SK-MEL-2
HOP-62 = test system: HOP-62
HOP-92 = test system: HOP-92
HL-60 = test system: HL-60
PC-3 = test system: PC-3
A498 = test system: A498
NCI-H460 = test system: NCI-H460
OVCAR-4 = test system: OVCAR-4
SK-MEL-28 = test system: SK-MEL-28
CCRF-CEM = test system: CCRF-CEM
TK-10 = test system: TK-10
CAKI-1 = test system: CAKI-1
Hs-578T = test system: Hs-578T
SN12C = test system: SN12C
IGROV-1 = test system: IGROV-1
OVCAR-5 = test system: OVCAR-5
COLO 205 = test system: COLO 205
786-0 = test system: 786-0
SK-OV-3 = test system: SK-OV-3
ACHN = test system: ACHN
HT-29 = test system: HT-29
NCI/ADR-RES = test system: NCI/ADR-RES
SF-268 = test system: SF-268
HCC 2998 = test system: HCC 2998
DU-145 = test system: DU-145
SNB-75 = test system: SNB-75
RXF 393 = test system: RXF 393

COc1cc2c(cc1OC)C13CCN4CC5=CCOC(CC(=O)O)C(C5CC41)C3N2 (centres undefined)
GI50 (SF-539): > 100 µM (inactive) | GI50 (Malme-3M): > 100 µM (inactive) | GI50 (M14): > 100 µM (inactive) | GI50 (UACC-257): > 100 µM (inactive) | GI50 (LOX IMVI): > 100 µM (inactive) | GI50 (SNB-19): > 100 µM (inactive) | GI50 (MDA-MB-231): > 100 µM (inactive) | GI50 (KM12): > 100 µM (inactive) | GI50 (HCT-15): > 100 µM | GI50 (MCF7): > 100 µM (inactive) | GI50 (UO-31): > 100 µM (inactive) | GI50 (MDA-N): > 100 µM (inactive) | GI50 (U-251): > 100 µM (inactive) | GI50 (SW-620): > 100 µM (inactive) | GI50 (EKVX): > 100 µM (inactive) | GI50 (BT-549): > 100 µM (inactive) | GI50 (OVCAR-3): > 100 µM (inactive) | GI50 (HCT-116): > 100 µM (inactive) | GI50 (NCI-H226): > 100 µM (inactive) | GI50 (OVCAR-8): > 100 µM (inactive) | GI50 (K562): > 100 µM (inactive) | GI50 (SR): > 100 µM (inactive) | GI50 (UACC-62): > 100 µM (inactive) | GI50 (SF-295): > 100 µM (inactive) | GI50 (SK-MEL-5): > 100 µM (inactive) | GI50 (NCI-H23): > 100 µM (inactive) | GI50 (MDA-MB-435): > 100 µM (inactive) | GI50 (MOLT-4): > 100 µM (inactive) | GI50 (A549): > 100 µM (inactive) | GI50 (RPMI-8226): > 100 µM (inactive) | GI50 (NCI-H522): > 100 µM (inactive) | GI50 (SK-MEL-2): > 100 µM (inactive) | GI50 (HOP-62): > 100 µM (inactive) | GI50 (HOP-92): 78.3 µM (inactive) | GI50 (HL-60): > 100 µM (inactive) | GI50 (PC-3): > 100 µM (inactive) | GI50 (A498): > 100 µM (inactive) | GI50 (NCI-H460): > 100 µM (inactive) | GI50 (OVCAR-4): > 100 µM (inactive) | GI50 (SK-MEL-28): > 100 µM (inactive) | GI50 (CCRF-CEM): 61.1 µM (inactive) | GI50 (TK-10): > 100 µM (inactive) | GI50 (CAKI-1): > 100 µM (inactive) | GI50 (Hs-578T): > 100 µM (inactive) | GI50 (SN12C): > 100 µM (inactive) | GI50 (IGROV-1): > 100 µM (inactive) | GI50 (OVCAR-5): > 100 µM (inactive) | GI50 (COLO 205): > 100 µM (inactive) | GI50 (786-0): > 100 µM (inactive) | GI50 (SK-OV-3): > 100 µM (inactive) | GI50 (ACHN): > 100 µM (inactive) | GI50 (HT-29): > 100 µM (inactive) | GI50 (NCI/ADR-RES): > 100 µM (inactive) | GI50 (SF-268): > 100 µM (inactive)

Cc1cc(C)c(N)c(CO)c1
GI50 (SF-539): > 100 µM (inactive) | GI50 (Malme-3M): > 100 µM (inactive) | GI50 (M14): > 100 µM (inactive) | GI50 (UACC-257): 45.3 µM (inactive) and 58.5 µM (inactive) | GI50 (LOX IMVI): > 100 µM (inactive) | GI50 (SNB-19): > 100 µM (inactive) | GI50 (MDA-MB-231): > 100 µM (inactive) | GI50 (KM12): > 100 µM (inactive) | GI50 (HCT-15): > 100 µM | GI50 (UO-31): > 100 µM (inactive) and 97.1 µM (inactive) | GI50 (MDA-N): > 100 µM (inactive) | GI50 (U-251): 61.1 µM (inactive) and 56.1 µM (inactive) | GI50 (SW-620): > 88.3 µM (inactive) and 95.3 µM (inactive) | GI50 (HCC 2998): 74.5 µM (inactive) and 71.1 µM (inactive) | GI50 (EKVX): > 100 µM (inactive) and 81.1 µM (inactive) | GI50 (BT-549): > 100 µM (inactive) | GI50 (OVCAR-3): 32.7 µM (inactive) and 24.4 µM (inactive) | GI50 (HCT-116): 35.6 µM (inactive) and 19.3 µM (inactive) | GI50 (OVCAR-8): > 100 µM (inactive) | GI50 (K562): 59.8 µM (inactive) and 67.5 µM (inactive) | GI50 (SR): > 100 µM (inactive) | GI50 (UACC-62): 22.8 µM (inactive) and 13.2 µM (inactive) | GI50 (SF-295): > 73.6 µM (inactive) and > 74.8 µM (inactive) | GI50 (SK-MEL-5): > 100 µM (inactive) | GI50 (NCI-H23): > 100 µM (inactive) | GI50 (MDA-MB-435): > 100 µM (inactive) | GI50 (MOLT-4): > 100 µM (inactive) | GI50 (A549): 42.8 µM (inactive) and 73.6 µM (inactive) | GI50 (RPMI-8226): > 100 µM (inactive) | GI50 (DU-145): > 100 µM (inactive) | GI50 (SK-MEL-2): > 100 µM (inactive) | GI50 (HOP-62): 38 µM (inactive) and > 53.5 µM (inactive) | GI50 (HOP-92): > 59.2 µM (inactive) | GI50 (SNB-75): > 100 µM (inactive) | GI50 (PC-3): > 100 µM (inactive) | GI50 (NCI-H460): 46.7 µM (inactive) and 34 µM (inactive) | GI50 (OVCAR-4): 78.9 µM (inactive) and 57.4 µM (inactive) | GI50 (SK-MEL-28): > 100 µM (inactive) | GI50 (CCRF-CEM): > 100 µM (inactive) | GI50 (CAKI-1): 4.25 µM (inactive) and 2.87 µM (inactive) | GI50 (Hs-578T): > 100 µM (inactive) | GI50 (SN12C): > 100 µM (inactive) | GI50 (COLO 205): 36.2 µM (inactive) and 46.7 µM (inactive) | GI50 (786-0): > 100 µM (inactive) | GI50 (SK-OV-3): > 100 µM (inactive) | GI50 (ACHN): > 100 µM (inactive) | GI50 (NCI/ADR-RES): > 100 µM (inactive) | GI50 (SF-268): > 100 µM (inactive)

CNC(=S)/N=c1/sc(NC)nc2sc3c(c12)CCCC3
GI50 (Malme-3M): > 100 µM (inactive) | GI50 (UACC-257): > 100 µM (inactive) | GI50 (LOX IMVI): > 100 µM (inactive) | GI50 (SNB-19): 35.9 µM (inactive) | GI50 (MDA-MB-231): 51.9 µM (inactive) | GI50 (KM12): > 100 µM (inactive) | GI50 (HCT-15): > 100 µM | GI50 (MCF7): > 100 µM (inactive) | GI50 (UO-31): > 100 µM (inactive) | GI50 (MDA-N): > 100 µM (inactive) | GI50 (U-251): 35.4 µM (inactive) | GI50 (RXF 393): 22.5 µM (inactive) | GI50 (SW-620): > 100 µM (inactive) | GI50 (HCC 2998): > 100 µM (inactive) | GI50 (EKVX): 76.6 µM (inactive) | GI50 (BT-549): 47.1 µM (inactive) | GI50 (OVCAR-3): > 100 µM (inactive) | GI50 (HCT-116): > 100 µM (inactive) | GI50 (NCI-H226): > 100 µM (inactive) | GI50 (K562): > 100 µM (inactive) | GI50 (SR): > 100 µM (inactive) | GI50 (UACC-62): > 100 µM (inactive) | GI50 (SF-295): 30.8 µM (inactive) | GI50 (SK-MEL-5): > 100 µM (inactive) | GI50 (NCI-H23): > 100 µM (inactive) | GI50 (MDA-MB-435): > 100 µM (inactive) | GI50 (MOLT-4): > 100 µM (inactive) | GI50 (RPMI-8226): > 100 µM (inactive) | GI50 (NCI-H522): 36.4 µM (inactive) | GI50 (DU-145): > 100 µM (inactive) | GI50 (SK-MEL-2): > 100 µM (inactive) | GI50 (HOP-62): 55 µM (inactive) | GI50 (HOP-92): 37.3 µM (inactive) | GI50 (HL-60): > 100 µM (inactive) | GI50 (PC-3): > 100 µM (inactive) | GI50 (A498): > 100 µM (inactive) | GI50 (NCI-H460): > 100 µM (inactive) | GI50 (OVCAR-4): > 100 µM (inactive) | GI50 (SK-MEL-28): > 100 µM (inactive) | GI50 (CCRF-CEM): > 100 µM (inactive) | GI50 (TK-10): > 100 µM (inactive) | GI50 (CAKI-1): > 100 µM (inactive) | GI50 (Hs-578T): 29 µM (inactive) | GI50 (SN12C): > 100 µM (inactive) | GI50 (IGROV-1): > 100 µM (inactive) | GI50 (OVCAR-5): > 100 µM (inactive) | GI50 (COLO 205): > 100 µM (inactive) | GI50 (786-0): 38.1 µM (inactive) | GI50 (SK-OV-3): 64.6 µM (inactive) | GI50 (ACHN): > 100 µM (inactive) | GI50 (HT-29): > 100 µM (inactive) | GI50 (SF-268): 34.6 µM (inactive)
